Source: US11254663B2 (BRISTOL-MYERS SQUIBB COMPANY, priority 2019, dated 2022)

Biological target: FXR (Homo sapiens (Human), UniProt Q96RI1)
Assay: transient human FXR/Gal4-luciferase reporter assay
Type: cell-based
Details: not given
Outline: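 HEK293 cells stably carrying a 5×Gal4 response element–firefly luciferase reporter were transiently transfected overnight with a Gal4 DBD–human FXR LBD fusion plasmid. Compound was added in DMSO and cells were incubated overnight at 37 °C, 5% CO2. Activity was read as Steady-Glo luminescence.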

Sequence of FXR (Q96RI1 262-486): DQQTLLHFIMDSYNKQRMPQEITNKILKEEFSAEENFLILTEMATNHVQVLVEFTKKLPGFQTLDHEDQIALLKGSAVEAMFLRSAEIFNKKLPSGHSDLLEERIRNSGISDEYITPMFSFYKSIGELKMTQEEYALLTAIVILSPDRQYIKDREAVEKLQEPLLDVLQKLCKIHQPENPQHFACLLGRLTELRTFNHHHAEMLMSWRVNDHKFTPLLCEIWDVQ

| SMILES | EC50 |
| --- | --- |
| Cc1nc2ccc(-c3cccc(N(CC45CCC(c6noc(C7(C(F)(F)F)CC7)n6)(CC4)CC5)C(=O)C45CC(F)(C4)C5)c3)cc2s1 [Example 524, 3-fluoro-N-(3-(2-methylbenzo[d]thiazol-6-yl)phenyl)-N-((4-(5-(1-(trifluoromethyl)cyclopropyl)-1,2,4-oxadiazol-3-yl)bicyclo[2.2.2]octan-1-yl)methyl)bicyclo[1.1.1]pentane-1-carboxamide] | 0.119 µM |
| CS(=O)(=O)Nc1ccc(-c2cccc(N(CC34CCC(c5ccc(C(F)(F)F)cn5)(CC3)CC4)C(=O)C34CC(F)(C3)C4)c2)cc1 [Example 488, 3-fluoro-N-(4′-(methylsulfonamido)-[1,1′-biphenyl]-3-yl)-N-((4-(5-(trifluoromethyl)pyridin-2-yl)bicyclo[2.2.2]octan-1-yl)methyl)bicyclo[1.1.1]pentane-1-carboxamide] | 0.876 µM |
| O=C(N(CC12CCC(c3ccc(C(F)(F)F)cn3)(CC1)CC2)c1cccc(-c2ncc(OC(F)F)cn2)c1)C12CC(F)(C1)C2 [Example 499, N-(3-(5-(difluoromethoxy)pyrimidin-2-yl)phenyl)-3-fluoro-N-((4-(5-(trifluoromethyl)pyridin-2-yl)bicyclo[2.2.2]octan-1-yl)methyl)bicyclo[1.1.1]pentane-1-carboxamide] | 0.135 µM |

Same assay, conditions: Gal4-hFXR fusion construct, HEK293 reporter cells; response relative to 8 μM GW-4064

| EC50 | SMILES |
| --- | --- |
| 2.19 µM | CC(C)(C)NC(=O)N(CC12CCC(c3noc(C(C)(C)F)n3)(CC1)CC2)c1cc(-c2ccc(OC(F)F)cc2)cnn1 [Example 660] |
| 0.264 µM | CS(=O)(=O)Nc1ccc(-c2cccc(N(CC34CCC(c5ccc(C6(C#N)CC6)cc5)(CC3)OC4)C(=O)C34CC(F)(C3)C4)c2)cc1 [Example 345, N-((1-(4-(1-Cyanocyclopropyl)phenyl)-2-oxabicyclo[2.2.2]octan-4-yl)methyl)-3-fluoro-N-(4′-(methylsulfonamido)-[1,1′-biphenyl]-3-yl)bicyclo[1.1.1]pentane-1-carboxamide] |
| 0.16 µM | CC(C)(F)c1nc(C23CCC(CN(C(=O)OC4CC(F)(F)C4)c4cc(-c5ccc(OC(F)F)cc5)c(F)cn4)(CC2)CC3)no1 [Example 630, 3,3-difluorocyclobutyl(4-(4-(difluoromethoxy)phenyl)-5-fluoropyridin-2-yl)((4-(5-(2-fluoropropan-2-yl)-1,2,4-oxadiazol-3-yl)bicyclo[2.2.2]octan-1-yl)methyl)carbamate] |
| 0.238 µM | CCOc1ncc(-c2cncc(N(CC34CCC(c5nc(C6CC6)no5)(CC3)CC4)C(=O)C34CC(F)(C3)C4)c2)cn1 [Example 423, N-((4-(3-cyclopropyl-1,2,4-oxadiazol-5-yl)bicyclo[2.2.2]octan-1-yl)methyl)-N-(5-(2-ethoxypyrimidin-5-yl)pyridin-3-yl)-3-fluorobicyclo[1.1.1]pentane-1-carboxamide] |
| 1.32 µM | COc1cc(-c2cccc(N(CC34CCC(c5cccc(C)n5)(CC3)CC4)C(=O)C34CC(F)(C3)C4)c2)ccn1 [Example 239, 3-Fluoro-N-(3-(2-methoxypyridin-4-yl)phenyl)-N-((4-(6-methylpyridin-2-yl)bicyclo[2.2.2]octan-1-yl)methyl)bicyclo[1.1.1]pentane-1-carboxamide] |
| 0.41 µM | CC(F)(F)c1nc(C23CCC(CN(C(=O)C45CC(F)(C4)C5)c4ccc(F)c(N5CCC5)c4)(CC2)CC3)no1 [Example 575, N-(3-(azetidin-1-yl)-4-fluorophenyl)-N-((4-(5-(1,1-difluoroethyl)-1,2,4-oxadiazol-3-yl)bicyclo[2.2.2]octan-1-yl)methyl)-3-fluorobicyclo[1.1.1]pentane-1-carboxamide] |
| 0.023 µM | CC(C)(O)c1ccc(-c2cccc(N(CC34CCC(c5noc(C(C)(C)F)n5)(CC3)CC4)C(=O)[C@H]3C[C@@](C)(O)C3)c2)cc1 [Example 577, (cis)-N-((4-(5-(2-fluoropropan-2-yl)-1,2,4-oxadiazol-3-yl)bicyclo[2.2.2]octan-1-yl)methyl)-3-hydroxy-N-(4′-(2-hydroxypropan-2-yl)-[1,1′-biphenyl]-3-yl)-3-methylcyclobutane-1-carboxamide] |
| 0.222 µM | CC(C)Oc1ccc(-c2cccc(N(CC34CCC(c5noc(C(C)(C)F)n5)(CC3)CC4)C(=O)OC3(C(F)(F)F)COC3)c2)cc1 [Example 632, 3-(trifluoromethyl)oxetan-3-yl ((4-(5-(2-fluoropropan-2-yl)-1,2,4-oxadiazol-3-yl)bicyclo[2.2.2]octan-1-yl)methyl)(4′-isopropoxy-[1,1′-biphenyl]-3-yl)carbamate] |

| SMILES | EC50 |
| --- | --- |
| CC(C)S(=O)(=O)Nc1ccc(-c2cccc(N(CC34CCC(c5nc(C6CC6)no5)(CC3)CC4)C(=O)C34CC(F)(C3)C4)c2)cc1 [Example 268, N-((4-(3-cyclopropyl-1,2,4-oxadiazol-5-yl)bicyclo[2.2.2]octan-1-yl)methyl)-3-fluoro-N-(4′-((1-methylethyl)sulfonamido)-[1,1′-biphenyl]-3-yl)bicyclo[1.1.1]pentane-1-carboxamide] | 0.166 µM |
| CC(C)(C)c1nc(C23CCC(CN(C(=O)C45CC(F)(C4)C5)c4cccc(-c5ccc(NS(C)(=O)=O)cc5)c4)(CC2)CC3)no1 [Example 438, N-((4-(5-(tert-butyl)-1,2,4-oxadiazol-3-yl)bicyclo[2.2.2]octan-1-yl)methyl)-3-fluoro-N-(4′-(methylsulfonamido)-[1,1′-biphenyl]-3-yl)bicyclo[1.1.1]pentane-1-carboxamide] | 0.046 µM |
| O=C(N(CC12CCC(c3nc(C4CC4)no3)(CC1)CC2)c1cncc(-c2cnc(C(F)(F)F)nc2)c1)C12CC(F)(C1)C2 [Example 428, N-((4-(3-cyclopropyl-1,2,4-oxadiazol-5-yl)bicyclo[2.2.2]octan-1-yl)methyl)-3-fluoro-N-(5-(2-(trifluoromethyl)pyrimidin-5-yl)pyridin-3-yl)bicyclo[1.1.1]pentane-1-carboxamide] | 3.55 µM |
| O=C(N(CC12CCC(c3nc(C4CC4)no3)(CC1)CC2)c1cccc(-c2ccn3ccnc3c2)c1)C12CC(F)(C1)C2 [Example 288, N-((4-(3-cyclopropyl-1,2,4-oxadiazol-5-yl)bicyclo[2.2.2]octan-1-yl)methyl)-3-fluoro-N-(3-(imidazo[1,2-a]pyridin-7-yl)phenyl)bicyclo[1.1.1]pentane-1-carboxamide] | 0.539 µM |
| O=C(N(CC12CCC(c3nc(C4CC4)no3)(CC1)CC2)c1cccc(-c2cnc3cc(Cl)cnn23)c1)C12CC(F)(C1)C2 [Example 329, N-(3-(7-chloroimidazo[1,2-b]pyridazin-3-yl)phenyl)-N-((4-(3-cyclopropyl-1,2,4-oxadiazol-5-yl)bicyclo[2.2.2]octan-1-yl)methyl)-3-fluorobicyclo[1.1.1]pentane-1-carboxamide] | 0.222 µM |
| CC(C)(C)c1noc(C23CCC(CN(C(=O)C45CC(F)(C4)C5)c4cccc(-c5cnc(C6CC6)nc5)c4)(CC2)CC3)n1 [Example 358, N-((4-(3-(tert-butyl)-1,2,4-oxadiazol-5-yl)bicyclo[2.2.2]octan-1-yl)methyl)-N-(3-(2-cyclopropylpyrimidin-5-yl)phenyl)-3-fluorobicyclo[1.1.1]pentane-1-carboxamide] | 0.154 µM |
| O=C(N(CC12CCC(c3nc(C4CC4)no3)(CC1)CC2)c1cccc(-c2cnc3nc(C4CC4)sc3c2)c1)C12CC(F)(C1)C2 [Example 276, N-((4-(3-cyclopropyl-1,2,4-oxadiazol-5-yl)bicyclo[2.2.2]octan-1-yl)methyl)-N-(3-(2-cyclopropylthiazolo[4,5-b]pyridin-6-yl)phenyl)-3-fluorobicyclo[1.1.1]pentane-1-carboxamide] | 0.0775 µM |
